Laboratory results: patent publication US6303591A, “21-hydroxy-6,19-oxidoprogesterone (21OH-6OP) and its use as medicament for treating excess of glucocorticoids” (Applied Research Systems ARS Holding NV, priority 1997, dated 2001)
“Also recorded” adds a separate entry of the source.

Assays:
[1] = target: T1, uterus PR (progesterone receptor) (Rattus norvegicus, UniProt Q63449); experiment: (^3 H)-P4 binding to uterus cytosols (PR); settings: uterus cytosol, 12 h at 0° C., 1 μM cortisol
T1 sequence (Q63449 1-923): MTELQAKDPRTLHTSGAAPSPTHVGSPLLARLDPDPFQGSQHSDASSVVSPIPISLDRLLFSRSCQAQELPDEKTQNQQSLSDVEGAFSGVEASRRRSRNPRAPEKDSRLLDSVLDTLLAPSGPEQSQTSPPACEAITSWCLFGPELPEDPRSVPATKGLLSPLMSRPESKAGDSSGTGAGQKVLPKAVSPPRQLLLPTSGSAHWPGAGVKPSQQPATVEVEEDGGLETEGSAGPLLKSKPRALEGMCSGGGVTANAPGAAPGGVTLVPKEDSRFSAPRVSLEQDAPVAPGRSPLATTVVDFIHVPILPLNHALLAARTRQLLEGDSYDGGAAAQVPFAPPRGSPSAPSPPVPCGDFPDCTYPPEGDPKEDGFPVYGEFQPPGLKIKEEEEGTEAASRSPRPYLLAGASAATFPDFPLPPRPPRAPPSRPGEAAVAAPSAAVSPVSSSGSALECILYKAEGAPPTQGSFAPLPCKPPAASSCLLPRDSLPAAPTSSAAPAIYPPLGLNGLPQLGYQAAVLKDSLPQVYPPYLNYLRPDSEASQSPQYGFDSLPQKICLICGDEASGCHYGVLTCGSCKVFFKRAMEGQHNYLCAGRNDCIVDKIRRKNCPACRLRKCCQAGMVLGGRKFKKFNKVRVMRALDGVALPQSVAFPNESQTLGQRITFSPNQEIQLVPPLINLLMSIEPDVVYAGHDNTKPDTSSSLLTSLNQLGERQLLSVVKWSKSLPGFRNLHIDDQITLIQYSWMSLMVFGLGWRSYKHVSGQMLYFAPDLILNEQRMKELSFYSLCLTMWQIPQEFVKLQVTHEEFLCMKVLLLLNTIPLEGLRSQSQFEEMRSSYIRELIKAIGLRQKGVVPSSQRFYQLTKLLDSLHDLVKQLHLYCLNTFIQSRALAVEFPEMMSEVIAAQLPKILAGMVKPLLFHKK
Experimental: (§1) Binding Assay: Adrenalectomized male Sprague-Dawley rats were bled to death by heart puncture. Cold 0.9% NaCI was injected profusely through the aorta until organs were completely blanched. Thymuses were used as a source of GR and kidneys as a source of MR. Homogenization and incubation conditions were performed as previously described, (14) and (15), respectively. Briefly, homogenates performed in cold TEGM buffer at pH 7.4 (0.1 M Tris-HCl, 10 mM EDTA, 10 mM α-mercaptoethanol, 20 mM Na2 MoO4, 25% glycerol, 0.1 mM PMSF, 2.0 TIU/ml aprotinin and 1 mg% Leupeptin) were centrifuged at 37,000 rev. for 30 min at 0° C. Supernatants from this centrifugation are referred to as "cytosol". […] (^3 H)-P4 binding to uterus PR was assayed on immature female rats according to Jordan et al (16).
Relative binding affinity (RBA) for partially purified CBG was determined by steroid competition for (^3 H)-B binding as described previously (14).

type II sites (GR) = target: T2, type II sites (GR) (Rattus norvegicus, UniProt P06536); experiment: tracer binding (Scatchard) to kidney type II sites (GR); settings: kidney cytosol, 2.5 μM 21OH-6OP
T2 construct: type II receptors in kidney cytosols; from tissue; host or cells: kidney cytosol, adrenalectomized male Sprague-Dawley rats
T2 sequence (P06536 1-795): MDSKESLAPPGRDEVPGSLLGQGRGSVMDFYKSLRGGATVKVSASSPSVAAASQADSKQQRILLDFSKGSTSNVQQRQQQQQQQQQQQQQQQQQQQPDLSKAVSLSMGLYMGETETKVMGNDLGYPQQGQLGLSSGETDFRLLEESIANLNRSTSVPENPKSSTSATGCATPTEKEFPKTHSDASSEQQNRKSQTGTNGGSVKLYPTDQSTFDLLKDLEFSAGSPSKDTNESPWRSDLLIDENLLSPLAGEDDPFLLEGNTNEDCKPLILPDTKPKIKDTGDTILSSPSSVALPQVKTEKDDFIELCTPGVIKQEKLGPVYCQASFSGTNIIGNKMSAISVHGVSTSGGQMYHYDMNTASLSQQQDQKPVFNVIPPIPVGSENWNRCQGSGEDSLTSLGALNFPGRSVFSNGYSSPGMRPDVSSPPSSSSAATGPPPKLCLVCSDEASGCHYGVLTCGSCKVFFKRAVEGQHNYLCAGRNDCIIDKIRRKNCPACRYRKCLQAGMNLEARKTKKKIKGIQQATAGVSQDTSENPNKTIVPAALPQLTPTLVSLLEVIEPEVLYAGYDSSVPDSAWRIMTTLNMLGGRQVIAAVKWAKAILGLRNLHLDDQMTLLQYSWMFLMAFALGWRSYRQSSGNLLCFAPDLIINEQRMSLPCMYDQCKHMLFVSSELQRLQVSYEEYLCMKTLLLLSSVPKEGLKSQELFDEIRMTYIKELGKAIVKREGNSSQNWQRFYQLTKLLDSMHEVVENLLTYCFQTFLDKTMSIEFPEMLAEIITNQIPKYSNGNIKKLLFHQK
Experimental: as §1
To study the binding of ALDO to kidney- MR without the competitive influence of the relatively more abundant GR, GR was removed with the specific ligand RU28362 (7).
The calculated Kd for type I sites in different conditions ranges between 0.4 and 1 nM (Table 1) which is at least eighty times higher than the affinity for type II sites.

## C[C@]12CC[C@H]3[C@@H](C[C@H]4OC[C@@]35CCC(=O)C=C45)[C@@H]1CC[C@@H]2C(=O)CO [21OH-6OP, 21-hydroxy-6,19-oxidoprogesterone]
[1]
  displacement of (^3 H)-P4 from uterus receptors / cross-reaction with PR: unable to cross-react with uterus-PR or kidney-MR; also recorded: does not cross-react with progesterone receptor; also recorded: as weakly as the negative control 17β-estradiol; also recorded: no ability to interact with MR nor PR; also recorded: does not cross-react with PR
Type II sites (GR)
  masking of (^3 H)-ALDO cross-reaction with GR / block of type II receptors: able to mask the cross reaction of (^3 H)-ALDO with GR; also recorded: able to block type II receptors in kidney cytosols
